Data published in PubChem BioAssay AID2060498 (Molecular Pharmacology Branch, DTP, NCI, 2025).

System: 171881-019-R-J1-PDC tumor spheroids, viability
Assay: Anticancer human tumor 171881-019-R-J1-PDC patient-derived invasive breast carcinoma cell line growth inhibition [GQUAD]
Details: spheroids with HUVEC and MSC; for IC50: curve of first compound; for viability, T/C: stronger effect = lower value
Method in brief: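 Viability of tumor cells grown as complex spheroids with endothelial and stromal cells, exposed to drug combinations. Top concentration at or near clinical Cmax (else 10 microM), diluted in half-log increments.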

[1] = second compound 0.0316 µM, first compound 0.0316 µM
[2] = second compound 0.0316 µM, first compound 0.1 µM
[3] = second compound 0.0316 µM, first compound 0.316 µM
[4] = second compound 0.0316 µM, first compound 1 µM
[5] = second compound 0.0316 µM, first compound 3.16 µM
[6] = second compound 0.0316 µM, first compound 10 µM
[7] = second compound 0.1 µM, first compound 0.0316 µM
[8] = second compound 0.1 µM, first compound 0.1 µM
[9] = second compound 0.1 µM, first compound 0.316 µM
[10] = second compound 0.1 µM, first compound 1 µM
[11] = second compound 0.1 µM, first compound 3.16 µM
[12] = second compound 0.1 µM, first compound 10 µM
[13] = second compound 0.316 µM, first compound 0.0316 µM
[14] = second compound 0.316 µM, first compound 0.1 µM
[15] = second compound 0.316 µM, first compound 0.316 µM
[16] = second compound 0.316 µM, first compound 1 µM
[17] = second compound 0.316 µM, first compound 3.16 µM
[18] = second compound 0.316 µM, first compound 10 µM
[19] = second compound 1 µM, first compound 0.0316 µM
[20] = second compound 1 µM, first compound 0.1 µM
[21] = second compound 1 µM, first compound 0.316 µM
[22] = second compound 1 µM, first compound 1 µM
[23] = second compound 1 µM, first compound 3.16 µM
[24] = second compound 1 µM, first compound 10 µM
[25] = second compound 3.16 µM, first compound 0.0316 µM
[26] = second compound 3.16 µM, first compound 0.1 µM
[27] = second compound 3.16 µM, first compound 0.316 µM
[28] = second compound 3.16 µM, first compound 1 µM
[29] = second compound 3.16 µM, first compound 3.16 µM
[30] = second compound 3.16 µM, first compound 10 µM
[31] = second compound 10 µM, first compound 0.0316 µM
[32] = second compound 10 µM, first compound 0.1 µM
[33] = second compound 10 µM, first compound 0.316 µM
[34] = second compound 10 µM, first compound 1 µM
[35] = second compound 10 µM, first compound 3.16 µM
[36] = second compound 10 µM, first compound 10 µM
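For viability, T/C in this document: 100% = DMSO vehicle control viability.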

COc1cccc2c1C(=O)c1c(O)c3c(c(O)c1C2=O)CC(O)(C(=O)CO)CC3OC1CC(N)C(O)C(C)O1 (stereo unspecified) + Cc1[nH]c2ccc(F)cc2c1-c1nc2c3cccnc3c3ncccc3c2[nH]1
IC50 (second compound 0.0316 µM): 135 nM
IC50 (second compound 0.1 µM): 148 nM
IC50 (second compound 0.316 µM): 156 nM
IC50 (second compound 1 µM): 117 nM
IC50 (second compound 3.16 µM): < 31.6 nM
IC50 (second compound 10 µM): < 31.6 nM
viability, T/C [1]: 89.8%
viability, T/C [2]: 51.9%
viability, T/C [3]: 38.1%
viability, T/C [4]: 16.4%
viability, T/C [5]: 0.24%
viability, T/C [6]: 0.22%
viability, T/C [7]: 85.3%
viability, T/C [8]: 55.3%
viability, T/C [9]: 37.9%
viability, T/C [10]: 16.5%
viability, T/C [11]: 0.15%
viability, T/C [12]: 0.52%
viability, T/C [13]: 82.8%
viability, T/C [14]: 56.4%
viability, T/C [15]: 38.7%
viability, T/C [16]: 13.9%
viability, T/C [17]: 0.13%
viability, T/C [18]: 0.5%
viability, T/C [19]: 76.2%
viability, T/C [20]: 47%
viability, T/C [21]: 40.3%
viability, T/C [22]: 14.7%
viability, T/C [23]: 0.3%
viability, T/C [24]: 0.77%
viability, T/C [25]: 22.2%
viability, T/C [26]: 17.1%
viability, T/C [27]: 18.2%
viability, T/C [28]: 9.24%
viability, T/C [29]: 0.43%
viability, T/C [30]: 0.81%
viability, T/C [31]: 38%
viability, T/C [32]: 38.9%
viability, T/C [33]: 23.1%
viability, T/C [34]: 16.5%
viability, T/C [35]: 0.93%
viability, T/C [36]: 0.93%

Nc1ccn(C2OC(CO)C(O)C2(F)F)c(=O)n1 (stereo unspecified) + Cc1[nH]c2ccc(F)cc2c1-c1nc2c3cccnc3c3ncccc3c2[nH]1
IC50 (second compound 0.0316 µM): < 31.6 nM
IC50 (second compound 0.1 µM): < 31.6 nM
IC50 (second compound 0.316 µM): < 31.6 nM
IC50 (second compound 1 µM): < 31.6 nM
IC50 (second compound 3.16 µM): < 31.6 nM
IC50 (second compound 10 µM): < 31.6 nM
viability, T/C [1]: 25.9%
viability, T/C [2]: 28.6%
viability, T/C [3]: 39.9%
viability, T/C [4]: 38.6%
viability, T/C [5]: 36.5%
viability, T/C [6]: 31.6%
viability, T/C [7]: 25.8%
viability, T/C [8]: 30.9%
viability, T/C [9]: 38.6%
viability, T/C [10]: 41.2%
viability, T/C [11]: 35.9%
viability, T/C [12]: 31.3%
viability, T/C [13]: 26.7%
viability, T/C [14]: 29.6%
viability, T/C [15]: 35.7%
viability, T/C [16]: 35.2%
viability, T/C [17]: 38.6%
viability, T/C [18]: 31.7%
viability, T/C [19]: 26.7%
viability, T/C [20]: 28.6%
viability, T/C [21]: 38%
viability, T/C [22]: 35.8%
viability, T/C [23]: 39.1%
viability, T/C [24]: 31.1%
viability, T/C [25]: 18.5%
viability, T/C [26]: 14%
viability, T/C [27]: 19.1%
viability, T/C [28]: 16.8%
viability, T/C [29]: 19.9%
viability, T/C [30]: 16.2%
viability, T/C [31]: 20.3%
viability, T/C [32]: 23.7%
viability, T/C [33]: 27.2%
viability, T/C [34]: 28.6%
viability, T/C [35]: 26.6%
viability, T/C [36]: 26.1%

O=c1[nH]cc(F)c(=O)[nH]1 + Cc1[nH]c2ccc(F)cc2c1-c1nc2c3cccnc3c3ncccc3c2[nH]1
IC50 (second compound 0.0316 µM): > 10000 nM
IC50 (second compound 0.1 µM): > 10000 nM
IC50 (second compound 0.316 µM): > 10000 nM
IC50 (second compound 1 µM): > 10000 nM
IC50 (second compound 3.16 µM): < 31.6 nM
IC50 (second compound 10 µM): < 31.6 nM
viability, T/C [1]: 75.7%
viability, T/C [2]: 64.5%
viability, T/C [3]: 62.7%
viability, T/C [4]: 54.1%
viability, T/C [5]: 47.7%
viability, T/C [6]: 53%
viability, T/C [7]: 80.5%
viability, T/C [8]: 70.7%
viability, T/C [9]: 60.9%
viability, T/C [10]: 54.7%
viability, T/C [11]: 50.5%
viability, T/C [12]: 53.5%
viability, T/C [13]: 73.1%
viability, T/C [14]: 65.8%
viability, T/C [15]: 59.3%
viability, T/C [16]: 52.7%
viability, T/C [17]: 58.7%
viability, T/C [18]: 52%
viability, T/C [19]: 68.6%
viability, T/C [20]: 55.4%
viability, T/C [21]: 56.6%
viability, T/C [22]: 50.2%
viability, T/C [23]: 54.3%
viability, T/C [24]: 48.8%
viability, T/C [25]: 21%
viability, T/C [26]: 21.6%
viability, T/C [27]: 30.6%
viability, T/C [28]: 23.8%
viability, T/C [29]: 24.2%
viability, T/C [30]: 24.7%
viability, T/C [31]: 44.4%
viability, T/C [32]: 47.8%
viability, T/C [33]: 47.3%
viability, T/C [34]: 42%
viability, T/C [35]: 52.1%
viability, T/C [36]: 38.8%
